Patent US20240415785A1, “USE OF D-ARABITOL IN LIPID-LOWERING AND HEPATOPROTECTION” (NANJING UNIVERSITY OF CHINESE MEDICINE, priority 2022, published 2024)

Legend:
Assay type in all cases: in vivo
[1] = tested on: C57 BL/6 J male mice with the high-fat diet; test: Body weight ratio of mice with the high-fat diet; settings: high-fat feed, 12 weeks, compared with model group
Protocol: (§1) D-arabitol, L-arabitol, L-arabinose, D-arabinose, and D-xylitol each were prepared with sterile distilled water into a 50 g/L or 20 g/L solution.
(§2) A total of 64 SPF-grade 8-week-old C57 BL/6 J male mice were adaptively raised for 3 d with a normal diet in a barrier facility having an independently-ventilated cage (IVC), tested for an initial body weight, and randomly divided into 8 groups. On day 4, the mice in the 8 groups were administered with a normal feed or a high-fat feed, and drinking water for mice in an administration group was replaced with drug-containing water. Each mouse had free access to food and drinking water, and a body weight was recorded weekly. The grouping, diets, and administration were as follows: • (1) normal diet group (Chow): normal feed+sterile distilled water; • (2) high-fat diet group (HFD): high-fat feed+sterile distilled water; • (3) 50 g/L L-arabitol group (HFD+50 g/L L-Arabitol): high-fat feed+50 g/L L-arabitol; • (4) 20 g/L D-arabitol group (HFD+20 g/L D-Arabitol): high-fat feed+20 g/L D-arabitol; • (5) 50 g/L D-arabitol group (HFD+50 g/L D-Arabitol): high-fat feed+50 g/L D-arabitol; • (6) 50 g/L L-arabinose group (HFD+50 g/L L-Arabinose): high-fat feed+50 g/L L-arabinose; • (7) 50 g/L D-arabinose group (HFD+50 g/L D-Arabinose): high-fat feed+50 g/L D-arabinose; and • (8) 50 g/L xylitol group (HFD+50 g/L Xylitol): high-fat feed+50 g/L xylitol.
Mouse body weight ratio: a body weight at the nth week (g)×100%/an initial body weight (g). Data was subjected to statistical tests with Graphpad Prism v9.0. Two-way ANOVA and Tukey's multiple comparison tests were adopted for body weight data, and one-way ANOVA and Dunnett's multiple comparison tests were adopted for other data.

[2] = tested on: C57 BL/6 J male mice with the high-fat diet; test: Blood lipid levels (total TG, LDL-c, HDL-c) in serum of mice with the high-fat diet; settings: high-fat feed, compared with high-fat diet group
Protocol: as §1, §2
(§3) At the end of the experiment, each mouse was anesthetized by intraperitoneal injection of sodium pentobarbital with a concentration of 5 mg/mL, the injection volume was 0.1 mL/10 g, and the injection dose was 50 mg/kg, and then blood was collected from the orbit. The mouse was sacrificed through cervical dislocation, and a liver was collected, rinsed with normal saline, and dried with a filter paper. A liver lobe was taken and fixed in paraformaldehyde. The remaining liver was quickly frozen with liquid nitrogen, and stored at −80° C. The blood was allowed to stand for 30 min and then centrifuged at 3,500 rpm for 10 min to obtain a supernatant, and the supernatant was collected and stored at −80° C.
A serum sample was taken, thawed at 4° C., and tested for serum HDL-c, LDL-c, total TG, ALT, and aspartate aminotransferase (AST) according to instructions of kits.

[3] = tested on: C57 BL/6 J male mice with the high-fat diet; test: Total cholesterol (TC) level in liver of mice with the high-fat diet; settings: high-fat feed 12 weeks, compared with high-fat diet group
Protocol: as §1
as §2, with “xylitol. […]” for “xylitol.”

[4] = tested on: C57 BL/6 J male mice with the high-fat diet; test: Liver histopathology (H&E staining) of mice with the high-fat diet; settings: high-fat feed
Protocol: as §1, §2, §3
A liver tissue that had been fixed with 4% paraformaldehyde was taken and subjected to gradient dehydration in the dehydrator as follows: in 75% ethanol for 4 h, in 85% ethanol for 2 h, in 90% ethanol for 2 h, in 95% ethanol for 1 h, in absolute ethanol I for 30 min, and in absolute ethanol II for 30 min. A tissue obtained after complete dehydration was permeabilized 1 time with a mixed solution of absolute ethanol and xylene mixed in equal volumes, and then permeabilized 2 times with pure xylene for about 5 min to 10 min each time. […]

[5] = tested on: C57 BL/6 J male mice with the high-fat diet; test: Serum ALT level of mice with the high-fat diet; settings: high-fat feed 12 weeks, compared with high-fat diet group
Protocol: as §1
as §2, with “xylitol. […]” for “xylitol.”

[6] = tested on: patient with a high blood or liver lipid level; test: Lipid-lowering method in patient or individual with a high blood or liver lipid level
Text: A lipid-lowering method was provided, including: a drug was orally administered to or injected into a patient with a high blood or liver lipid level, where an active ingredient of the drug was D-arabitol.
A lipid-lowering method was provided, including: an individual with a high blood or liver lipid level was allowed to take a health care product or a food, where the health care product or the food included D-arabitol as an active ingredient.

[7] = tested on: patient with a liver damage caused by a high blood or liver lipid level; test: Hepatoprotection method in patient or individual with a liver damage caused by a high blood or liver lipid level
Text: A hepatoprotection method was provided, including: a drug was orally administered to or injected into a patient with a liver damage caused by a high blood or liver lipid level, where an active ingredient of the drug was D-arabitol.
A hepatoprotection method was provided, including: an individual with a liver damage caused by a high blood or liver lipid level was allowed to take a health care product or a food, where the health care product or the food included D-arabitol as an active ingredient.

How did the body weight ratio ([1]; 50 g/L in drinking water) turn out when O=C[C@@H](O)[C@H](O)[C@H](O)CO [D-arabinose] was run?
The body weight ratio was “did not have an effect of making a body weight ratio of mice significantly decrease”.

Which body weight ratio ([1]; 20 g/L in drinking water) does the source give for OC[C@@H](O)C(O)[C@H](O)CO [D-arabitol] here?
The body weight ratio was “start to significantly decrease from week 8”.

And the body weight ratio ([1]; 50 g/L in drinking water)?
The body weight ratio was “start to significantly decrease from week 4”.

What about the “HDL-c concentration in serum” value ([2]; 20 g/L in drinking water) of the same compound?
The value was “significantly reduce”.

What about the “LDL-c concentration in serum” value ([2]; 20 g/L in drinking water) of the same compound?
Its value is “significantly reduce”.

What about the “HDL-c concentration in serum” value ([2]; 50 g/L in drinking water) of the same compound?
The value was “significantly reduce”.

And the “LDL-c concentration in serum” value ([2]; 50 g/L in drinking water)?
The value was “significantly reduce”.

What about the “total TG in serum” value ([2]; 50 g/L in drinking water) of the same compound?
Its value is “decreased significantly”.

And the “accumulation of TC in the liver” value ([3]; 20 g/L in drinking water)?
The value was “significantly reduce”.

And the “accumulation of TC in the liver” value ([3]; 50 g/L in drinking water)?
Its value is “significantly reduce”.

What about the “white vacuoles (lipid droplets) in the liver tissue, H&E staining” value (shortened to “white vacuoles (lipid droplets)”) ([4]; 20 g/L in drinking water) of the same compound?
Its value is “no obvious white vacuoles”.

And the “white vacuoles (lipid droplets)” value ([4]; 50 g/L in drinking water)?
Its value is “no obvious white vacuoles”.

What about the “serum ALT concentration” value ([5]; 20 g/L in drinking water) of the same compound?
Its value is “significantly reduce”.

What about the “serum ALT concentration” value ([5]; 50 g/L in drinking water) of the same compound?
The value was “significantly reduce”.

What about the “blood or liver lipid level in the patient” value ([6]; drug orally administered or injected, patient with a high blood or liver lipid level (Example 2)) of the same compound?
The value was “decreased effectively”.

And the “blood or liver lipid level in the individual” value ([6]; health care product or food taken by individual with a high blood or liver lipid level (Example 4))?
The value was “decreased effectively”.

And the “liver function in the patient” value ([7]; drug orally administered or injected, patient with a liver damage caused by a high blood or liver lipid level (Example 3))?
The value was “improved effectively”.

What about the “liver function in the individual” value ([7]; health care product or food taken by individual with a liver damage caused by a high blood or liver lipid level (Example 5)) of the same compound?
The value was “improved effectively”.

How did the body weight ratio ([1]; 50 g/L in drinking water) turn out when O=C[C@H](O)[C@@H](O)[C@@H](O)CO [L-arabinose] was run?
Its body weight ratio is “did not have an effect of making a body weight ratio of mice significantly decrease”.

With OC[C@H](O)C(O)[C@@H](O)CO [L-arabitol, reference compound] as the compound, how does the body weight ratio ([1]; 50 g/L in drinking water) read?
Its body weight ratio is “did not have an effect of making a body weight ratio of mice significantly decrease”.

What about the “liver cell structures, H&E staining (liver damage)” value ([4]; 50 g/L in drinking water) of the same compound?
Its value is “liver cell structures disappeared”.

What about the “white vacuoles (lipid droplets)” value ([4]; 50 g/L in drinking water) of the same compound?
Its value is “no significant white vacuoles”.

Which body weight ratio ([1]; 50 g/L in drinking water) does the source give for OC[C@@H](O)[C@H](O)[C@@H](O)CO [xylitol, Xylitol] here?
Its body weight ratio is “did not have an effect of making a body weight ratio of mice significantly decrease”.
